Residue numbers refer to the chain shown, from its start.
Assays:
[1] = molecular target: T1, cpSRP54–His (recombinant mature cpSRP54) (Arabidopsis thaliana, UniProt P37107, Q185R); test: isothermal titration calorimetry; format: binding; details: read-out: dissociation constant
T1 construct: gene FFC; mature protein, residues 79-564 (transit peptide removed), C-terminal His6, E. coli Rosetta (DE3), EDTA-treated then SEC in Mg buffer
T1 sequence (P37107 79-564 Q185R): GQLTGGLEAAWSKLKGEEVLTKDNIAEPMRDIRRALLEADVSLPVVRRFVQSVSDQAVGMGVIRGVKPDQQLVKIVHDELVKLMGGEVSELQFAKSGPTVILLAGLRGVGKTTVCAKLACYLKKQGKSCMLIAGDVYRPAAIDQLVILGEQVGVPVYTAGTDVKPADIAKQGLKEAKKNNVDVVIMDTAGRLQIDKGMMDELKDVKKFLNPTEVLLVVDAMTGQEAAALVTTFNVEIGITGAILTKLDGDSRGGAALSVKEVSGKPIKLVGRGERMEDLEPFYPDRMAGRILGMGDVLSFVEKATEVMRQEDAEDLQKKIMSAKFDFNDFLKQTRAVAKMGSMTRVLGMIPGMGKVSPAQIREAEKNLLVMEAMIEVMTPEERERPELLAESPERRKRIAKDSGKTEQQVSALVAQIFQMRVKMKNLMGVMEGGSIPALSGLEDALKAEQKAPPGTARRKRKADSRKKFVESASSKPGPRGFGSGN

[2] = molecular target: T2, cpSRP54–His (recombinant mature cpSRP54) (Arabidopsis thaliana, UniProt P37107); test: isothermal titration calorimetry; format: binding; details: read-out: dissociation constant
T2 construct: gene FFC; mature protein, residues 79-564 (transit peptide removed), C-terminal His6, E. coli Rosetta (DE3), EDTA-treated then SEC in Mg buffer
T2 sequence (P37107 79-564): T1 sequence (P37107 79-564 Q185R) with R107Q

Row | Kd [1] [µM] | Kd [2] [µM] | Structure (SMILES)
1 | 30.3 | 30.2 | Nc1nc2c(ncn2[C@@H]2O[C@H](COP(=O)(O)OP(=O)(O)O)[C@@H](O)[C@H]2O)c(=O)[nH]1 [GDP]
2 | 17.3 | 53.4 | Nc1nc2c(ncn2[C@@H]2O[C@H](COP(=O)(O)OP(=O)(O)OP(=O)(O)O)[C@@H](O)[C@H]2O)c(=O)[nH]1 [GTP]

Reference: paper PMC11427828, “The role of chloroplast SRP54 domains and its C-terminal tail region in post- and co-translational protein transport in vivo” (Journal of Experimental Botany, 2024)
